Data on 18 compounds can be found in patent US7563791B2, “Pyrrolotriazine derivatives useful for treating hyper-proliferative disorders and diseases associated with angiogenesis” (Bayer Pharmaceuticals Corporation, priority 2004, dated 2009).

Format in all cases: cell-based
For one experiment, the system named is HCT116 cells. The experiment can be described thus: Tumor cell proliferation (Alamar Blue), HCT116. The settings on record: Homo sapiens, HCT-116, 72 h. On the procedure:
(§1) Human tumor cells (e.g., HCT116 or MDA-MB-231 cells), are seeded in a Costar 96-well plate at 3.0×10^3 cells/well and grown in 150 μl of RPMI complete media (Invitrogen Corporation, Grand Island, N.Y.) containing 10% fetal bovine serum (Hyclone, Logan, Utah) at 37° C. for 16 h in an incubator with 5% CO2. To each well, 50 μl of additional growth media containing 40 μM to 18 nM concentrations of compound with 0.4% DMSO is added. Cells are grown for another 72 h at 37° C. with 5% CO2. 20 μl of Alamar Blue (Trek Diagnostic Systems, Inc., Cleveland, Ohio) reagent is added to each well and incubated for 3 h at 37° C. Plates are read in a SpectraMax Gemini (Molecular Devices, Calif.) with 544 nm excitation and 590 nm emission wavelength. IC50 values are determined by linear regression analysis of log drug concentration versus percent inhibition.
On the technique in general: Resazurin is reduced to fluorescent resorufin, in cell work by metabolically active cells.

The subject of the next experiment is MDA-MB-231 cells. The experiment can be described thus: Tumor cell proliferation (Alamar Blue), MDA-MB-231. The conditions noted are these: Homo sapiens, MDA-MB-231, 72 h. How it is done: as §1
The subject of experiment [1] is VEGF stimulated Phospho-ERK in HUVEC. The experiment can be described thus: Growth factor stimulated p-ERK assay in HUVECs (VEGF stimulation, ERK1/2 Bioplex). The conditions noted are these: Homo sapiens, compound 2 hrs, then 50 ng/ml VEGF 10 min; for inhibition at 0.1 µM: @ 100 nM. On the procedure:
Growth Factor Stimulated p-ERK assay in HUVECs
Exponentially growing human endothelial HUVECs cells (human umbilical vein endothelial cells, cat# CC-2517, Cambrex, Walkersville, Md.) were seeded at twenty five thousand cells/well in 96 well plates in EBM-2 MV medium with growth factors (cat# CC-3202, Cambrex) and grown at 37° C. in 5% CO2. Sixteen hours post-plating, the cells were changed to serum-free medium (RPMI 1640 containing 0.1% BSA (bovine serum albumin) and compounds were added at different concentrations for 2 hrs, after which the cells were stimulated for 10 min with 50 ng/ml of either VEGF (vascular endothelial growth factor, Protein Sciences, Meriden, Conn.) or bFGF (basic fibroblast growth factor cat# PHG0026, Biosource International, Camarillo, Calif.). The rest of the assay was performed per manufacturer indications for the ERK½ Bioplex assay (cat#171-304004, Bio-Rad, Hercules, Calif.). After removing culture medium by aspiration, the cells were quickly rinsed with 100 μl of cell wash buffer A to stop treatment reaction. Eighty microliters of cell lysis buffer were then immediately added to each well of the 96 well plate which was put on ice. Cells in each well were lysed by pipetting up and down 5 times with a multi-channel pipet. The plate was then agitated on a microtiter plate shaker at 300 rpm for 20 min at 4° C. Cellular debris were pelleted by centrifugation at 4500 g for 15 min at 4° C. and the supernatant was collected. Forty five microliters of supernatant was diluted with an equal volume of Bio-Plex phosphoprotein assay Buffer B, The coupled and color coated beads were added into a 96 well filter plate, and the prepared lysates were added. The beads and lysate mixture was incubated at room temperature for 15-18 hrs. The following day, the plate was vacuum-filtered and then washed 3×. Twenty-five microliters of detection antibody solution were added to each well and the plate was then incubated for 30 min at room temperature. The plate was then vaccum-filtered and washed as described previously. Fifty microliters of streptavidin-PE solution was added to each well, the plate was incubated for 10 min at room temperature and then was then vaccum-filtered and washed as described above. One hundred twenty-five microliters of resuspension buffer was added to each well and data were acquired on the Luminex 100 instrument (Bio-Rad).

Take `CCOC(=O)c1cn2ncnc(N)c2c1-c1ccc(NC(=O)Nc2cc(C(C)(C)C)nn2-c2ccc(F)cc2)cc1` [Example 25, ethyl 4-amino-5-{4-[({[3-tert-butyl-1-(4-fluorophenyl)-1H-pyrazol-5-yl]amino}carbonyl)amino]phenyl}pyrrolo[2,1-f][1,2,4]triazine-6-carboxylate]: the half-maximal inhibitory concentration (IC50) in the experiment on HCT116 cells and in the experiment with MDA-MB-231 cells was under 0.5 µM throughout.

Take `Nc1ncnn2cc(C(=O)NC3CC3)c(-c3ccc(NC(=O)Nc4cc(C(F)(F)F)ccc4F)cc3)c12` [Example 69, 4-amino-N-cyclopropyl-5-{4-[({[2-fluoro-5-(trifluoromethyl)phenyl]amino}carbonyl)amino]phenyl}pyrrolo[2,1-f][1,2,4]triazine-6-carboxamide]: the values for the IC50 in the experiment with HCT116 cells, in the experiment with HCT116 cells (bounds given in μM) and in the experiment on MDA-MB-231 cells (bounds given in μM) were over 0.5 µM, under 1.5 µM and 1.5 to 5 µM, respectively.

In the case of `CCNC(=O)c1cn2ncnc(N)c2c1-c1ccc(NC(=O)Nc2cc(C(F)(F)F)ccc2F)cc1` [Example 71, 4-amino-N-ethyl-5-{4-[({[2-fluoro-5-(trifluoromethyl)phenyl]amino}carbonyl)amino]phenyl}pyrrolo[2,1-f][1,2,4]triazine-6-carboxamide], the IC50 in the experiment on HCT116 cells is over 0.5 µM; in the experiment with HCT116 cells (bounds given in μM), under 1.5 µM; with MDA-MB-231 cells, under 0.5 µM.

In the case of `CNC(=O)c1cn2ncnc(N)c2c1-c1ccc(NC(=O)Nc2cc(C(C)(C)C)ccn2)cc1` [Example 73, 4-amino-5-[4-({[(4-tert-butylpyridin-2-yl)amino]carbonyl}amino)phenyl]-N-methylpyrrolo[2,1-f][1,2,4]triazine-6-carboxamide], the IC50 in the experiment on HCT116 cells (bounds given in μM) and in the experiment on MDA-MB-231 cells (bounds given in μM) was 1.5 to 5 µM in each case.

For `CNC(=O)c1cn2ncnc(N)c2c1-c1ccc(NC(=O)Nc2ccc(F)c(C(F)(F)F)c2)cc1` [Example 74, 4-amino-5-{4-[({[4-fluoro-3-(trifluoromethyl)phenyl]amino}carbonyl)amino]phenyl}-N-methylpyrrolo[2,1-f][1,2,4]triazine-6-carboxamide], the IC50 in the experiment with HCT116 cells (bounds given in μM) and in the experiment on MDA-MB-231 cells (bounds given in μM) was 1.5 to 5 µM in each case.

As for `CC(C)(C)c1ccnc(NC(=O)Nc2ccc(-c3c(C(=O)NC4CC4)cn4ncnc(N)c34)cc2)c1` [Example 76, 4-amino-5-[4-({[(4-tert-butylpyridin-2-yl)amino]carbonyl}amino)phenyl]-N-cyclopropylpyrrolo[2,1-f][1,2,4]triazine-6-carboxamide], the IC50 was over 0.5 µM in the experiment on HCT116 cells, under 1.5 µM in the experiment with HCT116 cells (bounds given in μM) and 1.5 to 5 µM in the experiment with MDA-MB-231 cells (bounds given in μM).

In the case of `Nc1ncnn2cc(C(=O)NC3CC3)c(-c3ccc(NC(=O)Nc4cc(C(F)(F)F)ccn4)cc3)c12` [Example 82, 4-amino-N-cyclopropyl-5-{4-[({[4-(trifluoromethyl)pyridin-2-yl]amino}carbonyl)amino]phenyl}pyrrolo[2,1-f][1,2,4]triazine-6-carboxamide], the IC50 in the experiment with HCT116 cells (bounds given in μM) was 1.5 to 5 µM; in the experiment on MDA-MB-231 cells, over 0.5 µM; with MDA-MB-231 cells (bounds given in μM), under 1.5 µM.

`COCCN(C)C(=O)c1cn2ncnc(N)c2c1-c1ccc(NC(=O)Nc2ccc(F)c(C(F)(F)F)c2)cc1` [Example 84, 4-amino-5-{4-[({[4-fluoro-3-(trifluoromethyl)phenyl]amino}carbonyl)amino]phenyl}-N-(2-methoxyethyl)-N-methylpyrrolo[2,1-f][1,2,4]triazine-6-carboxamide] gave a 50% inhibitory concentration (IC50) in the experiment on HCT116 cells (bounds given in μM) of 5 to 10 µM.

On to `Cn1nc(C(C)(C)C)cc1NC(=O)Nc1ccc(-c2c(C(=O)NCC(F)(F)F)cn3ncnc(N)c23)cc1` [Example 94, 4-amino-5-[4-({[(3-tert-butyl-1-methyl-1H-pyrazol-5-yl)amino]carbonyl}amino)phenyl]-N-(2,2,2-trifluoroethyl)pyrrolo[2,1-f][1,2,4]triazine-6-carboxamide], for which the IC50 is 5 to 10 µM with HCT116 cells (bounds given in μM) and 1.5 to 5 µM in the experiment on MDA-MB-231 cells (bounds given in μM).

In experiment [1], `CCOC(=O)c1cn2ncnc(N)c2c1-c1ccc(NC(=O)Nc2ccc(OC)c(CN3CCOCC3)c2)cc1` [Example 96, ethyl 4-amino-5-{4-[({[4-methoxy-3-(morpholin-4-ylmethyl)phenyl]amino}carbonyl)amino]phenyl}pyrrolo[2,1-f][1,2,4]triazine-6-carboxylate] came in with an inhibition at 0.1 µM of under 50%, an inhibition at 1 µM of under 50% and an inhibition at 10 µM of over 50%.

For the compound `CCOC(=O)c1cn2ncnc(N)c2c1-c1ccc(NC(=O)Nc2cccc(OCCN(CC)CC)c2)cc1` [Example 98, ethyl 4-amino-5-(4-{[({3-[2-(diethylamino)ethoxy]phenyl}amino)carbonyl]amino}phenyl)pyrrolo[2,1-f][1,2,4]triazine-6-carboxylate], in experiment [1], the inhibition at 0.1 µM was under 50%, the inhibition at 1 µM is under 50% and the inhibition at 10 µM is over 50%.

In experiment [1], `NC(=O)c1cn2ncnc(N)c2c1-c1ccc(NC(=O)Nc2cc(C(F)(F)F)ccc2F)cc1` [Example 104, 4-amino-5-{4-[({[2-fluoro-5-(trifluoromethyl)phenyl]amino}carbonyl)amino]phenyl}pyrrolo[2,1-f][1,2,4]triazine-6-carboxamide] registered an inhibition at 0.1 µM of under 50%, an inhibition at 1 µM of under 50% and an inhibition at 10 µM of over 50%.

On to `COCCNC(=O)c1cn2ncnc(N)c2c1-c1ccc(NC(=O)Nc2cccc(SC(F)(F)F)c2)cc1` [Example 131, 4-amino-N-(2-methoxyethyl)-5-(4-{[({3-[(trifluoromethyl)thio]phenyl}amino)carbonyl]amino}phenyl)pyrrolo[2,1-f][1,2,4]triazine-6-carboxamide], for which, in experiment [1], the inhibition at 0.1 µM is under 50% and the inhibition at 1 µM is over 50%.

In experiment [1], `Nc1ncnn2cc(C(=O)NCC(F)(F)F)c(-c3ccc(NC(=O)Nc4ccnc(C(F)(F)F)c4)cc3)c12` [Example 140, 4-amino-N-(2,2,2-trifluoroethyl)-5-{4-[({[2-(trifluoromethyl)pyridin-4-yl]amino}carbonyl)amino]phenyl}pyrrolo[2,1-f][1,2,4]triazine-6-carboxamide] showed an inhibition at 0.1 µM of under 50%, an inhibition at 1 µM of under 50% and an inhibition at 10 µM of over 50%.

Take `CC(C)(CO)NC(=O)c1cn2ncnc(N)c2c1-c1ccc(NC(=O)Nc2cc(C(F)(F)F)ccc2Cl)cc1` [Example 143, 4-amino-5-{4-[({[2-chloro-5-(trifluoromethyl)phenyl]amino}carbonyl)amino]phenyl}-N-(2-hydroxy-1,1-dimethylethyl)pyrrolo[2,1-f][1,2,4]triazine-6-carboxamide]: in experiment [1], the inhibition at 0.1 µM is under 50% and the inhibition at 1 µM was over 50%.

In experiment [1], `Nc1ncnn2cc(C(=O)NCC3CCCO3)c(-c3ccc(NC(=O)Nc4cc(C(F)(F)F)ccc4F)cc3)c12` (stereo not shown) [Example 146, 4-amino-5-{4-[({[2-fluoro-5-(trifluoromethyl)phenyl]amino}carbonyl)amino]phenyl}-N-(tetrahydrofuran-2-ylmethyl)pyrrolo[2,1-f][1,2,4]triazine-6-carboxamide] had an inhibition at 0.1 µM of under 50% and an inhibition at 1 µM of over 50%.

As for `N#Cc1cn2ncnc(N)c2c1-c1ccc(NC(=O)Nc2cccc(C(F)(F)F)n2)cc1` [Example 168, N-[4-(4-amino-6-cyanopyrrolo[2,1-f][1,2,4]triazin-5-yl)phenyl]-N′-[6-(trifluoromethyl)pyridin-2-yl]urea], in experiment [1], the inhibition at 0.1 µM is under 50% and the inhibition at 1 µM is over 50%.

On to `Nc1ncnn2cc(CO)c(-c3ccc(NC(=O)Nc4cc(C(F)(F)F)ccc4F)c(F)c3)c12` [Example 251, N-{4-[4-amino-6-(hydroxymethyl)pyrrolo[2,1-f][1,2,4]triazin-5-yl]-2-fluorophenyl}-N′-[2-fluoro-5-(trifluoromethyl)phenyl]urea], for which the IC50 is over 0.5 µM with MDA-MB-231 cells and under 1.5 µM with MDA-MB-231 cells (bounds given in μM).

As usually defined, the IC50 is the midpoint of a concentration-inhibition curve. Read a high IC50 as lower potency. As a reminder, the inhibition is the change of the read-out against control, counted positive when it falls. Low values mean a response near the control, high ones a response far below the control.
